Key:
[1] = system: Human lung-derived carcinoma cells A549; experiment: Cytotoxicity assay (MTT); assay type: cell-based; settings: 72 h, sigmoid dose-response fit
Protocol: Cytotoxicity Assay. TAX-loaded and drug-free micelles at serial dilutions were prepared as above. For comparison, 12 mg/ml TAX in ethanol was mixed with an equal volume of Cremophor® EL followed by sonication for 30 min. The resulting Cremophor EL TAX was diluted with DPBS to obtain desired TAX concentrations. Human lung-derived carcinoma cells A549 were grown in F12 Ham media supplemented with 10% fetal bovine serum and 100 U/ml penicillin and 100 μg/ml streptomycin at 37° C., 5% CO2 to 60-70% confluence. A549 cells (50,000 cell/ml) were seeded in 96-well plates at 5,000 cells per well and cultured for 24 h to allow attachment. […] As control, […] of DPBS was added to cells not exposed to those formulations. After 37° C., 5% CO2 incubation for 72 h, the media were discarded, and 100 μl/well F12 Ham medium and 11 μl/well of 5 mg/ml MTT solution in DPBS was added. The plates were incubated at 37° C. for 3 h and the media were removed again. The intracellular metabolized product MTT formazan was retrieved by addition of 100 μl/well DMSO and incubation at room temperature for 5 min. The plates were read at 550 nm, and the cell viability was calculated as (reading of wells with cells exposed to tested formulations minus the reading of the blank wells) divided by (reading of wells with cells exposed to DPBS minus the reading of the blank wells).
Data Analysis. […]

[2] = system: lung carcinoma A549 tumors; experiment: Tumor shrinkage study, multiple injections; assay type: in vivo, mice
Protocol: Tumor shrinkage studies. Human lung carcinoma cell line, A549, was injected subcutaneously at […] per mouse. […] The same injections were repeated after 3, 7, 10, 14, 17 and 21 days. Tumor area (A) was monitored 24 hrs after each injection by measuring two orthogonal dimensions as A=[(L1×L2)/2] for each treatment group. The body weight of the mice was also monitored throughout the experiment.
The tumor shrinkage effect of different carriers was also examined in a multiple-injection experiment. […] TAX in DPBS solution was also used for comparison, with the MTD of 1 mg/kg injected. […] It should be noted here that the weight gaining due to tumor growth (if possible) for all groups was minimal, wherein the largest tumor area gained after 3 weeks was 0.4 cm^2 (FIG. 6A), corresponding to an approximate volume of 0.2 cm^3 (assuming the tumor was spherical in shape). This would have contributed to only 0.2 g of the total weight (assuming the density of tumor is 1 g/ml).
To evaluate the tumor inhibition effect of the different TAX delivery methods in a more quantitative way, the TAX-inhibited tumor growth vs. time plot was fit by applying an exponential model (Simeoni et al., Cancer Res. 64:1094-101 (2004)), incorporating both a tumor growth phase and a tumor shrinkage phase with the TAX addition. The modeling was performed by fit the parameters in the equation (Table 4):
Tumor Area=Σ Ae^t/growth+Be^−t/shrink Equation 7
where t is the time (day), A and tgrowth are constants of the tumor growth phase, and B and tshrink are constants of the TAX-inhibition phase.

in vivo = settings: Nrc nude, mouse
Protocol: (§1) Nrc nude mice were weighed followed by a single tail vein injection of either empty OCL3 micelles and TAX-loaded micelles in different concentrations at 0.2 ml per mouse. After 24 hours, the mice were weighed again. The “maximum tolerated dose” (MTD) was determined to be, and defined as, the dose that caused the mouse body weight loss<10%.

[3] = Maximum tolerated dose (MTD) determination; settings: nude mice, dose that causes 10% weight loss within 24 h (Example 3)
Protocol: as §1

A549 tumor xenografts = experiment: Tumor study with single tail-vein injection (Example 3); settings: one week after single injection, 1 mg kg^−1 in ethanol (MTD)
Protocol: Briefly, cultured cells were injected subcutaneously onto the backs of nude mice and allowed to grow until they reached a mean size of 0.52 cm^2 (±0.02 em^2). […] Each group consisted of four mice.

[4] = exponential model of TAX-inhibited A549 tumor area vs time, injections at MTD

CC(=O)O[C@H]1C(=O)[C@@]2(C)[C@H]([C@H](OC(=O)c3ccccc3)[C@]3(O)C[C@H](OC(=O)[C@H](O)[C@@H](NC(=O)c4ccccc4)c4ccccc4)C(C)=C1C3(C)C)[C@]1(OC(C)=O)CO[C@@H]1C[C@@H]2O [TAX, Paclitaxel]
IC50 [1]: 321 nM | tumor growth inhibition (in words) ([2]; A549-bearing mice, multiple injections at MTD, 22 days): modest inhibition of tumor growth | A, constant of the tumor growth phase [2, 4]: 0.014 cm^2 | B, constant of the TAX-inhibition phase [2, 4]: 0.178 cm^2 | tgrowth, constant of the tumor growth phase [2, 4]: 1.2 week | tshrink, constant of the TAX-inhibition phase [2, 4]: 8.8 week | MTD at 24 h (in vivo): 1 mg/kg | maximum tolerated dose (MTD) [3]: 1 mg/kg | apoptosis in tumor (TUNEL-stained tumor sections) (A549 tumor xenografts): little effect
